Entries after “also recorded” stand apart in the source; their conditions may differ.
Assays:
Type in all cases: cell-based, human
iPSC-RPE [1] = test: Transmission electron microscopy, fine intracellular structures; settings: TEM, AGN 193109 0.2 μM, endo-IWR-1 4 uM
Protocol: Finally, transmission electron microscopy (TEM) was used to detect fine morphological alterations, whereas scanning electron microscopy (SEM) was essential to study modifications in apical processes structures. […] In DMSO-treated iPSC-RPE we found both types of apical processes, petal and finger-like.
(§1) AGN 193109 was used at 0.2 μM and endo-IWR-1 at 4 uM. Both drugs were dissolved in DMSO, so that the final concentration of DMSO was not more than 0.1%. The final concentration of DMSO control was 0.1%. The compounds were added in RPE maturation medium until cells were mature. Gross cell morphology was also analyzed (FIGS. 20B, 20D, and 20F, left image) to detect possible abnormalities. Fine intracellular structures were examined for alterations with transmission electron microscopy (TEM, FIGS. 20B, 20D, and 20F, right image).

iPSC-RPE [2] = test: Single-cell RNA sequencing; settings: AGN 193109-, endo-IWR-1- and DMSO-treated cells
Protocol: Single-cell RNA sequencing was performed to confirm that the compounds changed cell transcriptome.

iPSC-RPE [3] = test: Brightfield imaging of RPE pigmentation; settings: compared to DMSO-treated iPSC-RPE, AGN 193109 0.2 μM, endo-IWR-1 4 uM
Protocol: Brightfield imaging was used to determine RPE pigmentation defects, while hematoxylin and eosin (H&E) staining was valuable to inspect gross morphologic alterations of the monolayer. A section of transwell membrane was cut and mounted on a glass slide for brightfield imaging. Pigmentation levels were preserved after ENDO-1-IWR and AGN 193109 treatments as compared to DMSO-treated iPSC-RPE.
as §1

iPSC-RPE [4] = test: High-content compound screening on iPSC-RPE, cell area quantified with REShAPE; settings: 384-well plates, 30 days in RPE maturation medium
Protocol: Screening of Compound Library and Imaging: 115 drugs targeting various developmental pathways or cytoskeletal stressors were selected to form a new developmental library of compounds. The drugs are either activators or inhibitors of various signaling pathways and target proteins at different levels of the signaling cascades. For each drug, an initial concentration was selected, and adjustments made to the concentration of each drug. The assays were performed on iPSC-derived committed RPE. For every drug, the concentration was lowered if toxicity was detected or increased if there was no evident effect on cell morphology in comparison to control. The list of compounds tested can be found in Table 1. The high-content screening was performed in 384-well plates (cat #6057300, Perkin Elmer) using a range of 3 different concentrations (3×, 1×, 0.3×). […]
Morphometric Analysis Using REShAPE: The binary segmentation produced by the CNN algorithm was transferred to REShAPE for cell shape analysis. […] For every cell in a field of view that has been successfully segmented, REShAPE provide quantification of more than 25 different shape metrics. […] In addition, the software created images of segmented cells for every metric analyzed, where every cell is color-coded according to the raw values (FIG. 4). The color-coded images display the location of the cells analyzed. […]

iPSC-RPE [5] = test: Phenotypic characterization of selected drug treatments (TER, brightfield, H&E, TEM, SEM); settings: for induced RPE phenotype: cell size and apical processes; for effect on iPSC-RPE health: verified by TER, brightfield, H&E and TEM
Text: Eleven compounds were selected for further phenotypic characterization based on their initial effect in RPE cell size. […] Because the macula is dominated by cones while the periphery is dominated by rods, RPE cells in these two different regions might be enriched in one of the two apical process structures. It was hypothesized that the phenotype of RPE apical processes will serve as an additional discriminatory factor, other than RPE morphometry.
Different techniques were used to study RPE morphologic features.
Starting at D21, iPSC-RPE were treated with the different compounds. At D40 immature RPE were enriched by negative selection, as per differentiation protocol, and seeded on transwells for maturation. iPSC-RPE were treated with the compounds for other 6 weeks until cells were fully mature (FIG. 1 and FIG. 11).

Row | pigmentation levels (iPSC-RPE [3]; listed as Endo-IWR-1) | pigmentation levels (iPSC-RPE [3]; listed as endo-IWR-1) | Compound | fine intracellular structures (iPSC-RPE [1]) | single cell transcriptome clustering (iPSC-RPE [2]) | pigmentation levels (iPSC-RPE [3]) | effect on iPSC-RPE cell area / cell size distribution in the screening (iPSC-RPE [4]) | induced RPE phenotype (iPSC-RPE [5]) | effect on iPSC-RPE health (iPSC-RPE [5]) | fine intracellular structures (iPSC-RPE [1]; listed as endo-IWR-1)
1 |  |  | Cc1ccc(C2=CCC(C)(C)c3ccc(C#Cc4ccc(C(=O)O)cc4)cc32)cc1 [AGN 193109, 4-[2-[5,6-Dihydro-5,5-dimethyl-8-(4-methylphenyl)-2-naphthalenyl]ethynyl]-benzoic acid] | no fine intracellular structure defects were identified; also recorded: nor did they affect gross or fine cell morphology | cluster separately from each other | preserved; also recorded: did not alter pigmentation levels | reproduces macular and peripheral cell sizes in vitro, respectively | induces a macular RPE phenotype | not disruptive of iPSC-RPE health; also recorded: did not affect the healthy RPE phenotype | 
2 | did not alter pigmentation levels | did not alter pigmentation levels | O=C(Nc1cccc2cccnc12)c1ccc(N2C(=O)C3C4C=CC(C4)C3C2=O)cc1 (stereo not drawn) [ENDO-1-IWR, 4-(1,3,3a,4,7,7a-Hexahydro-1,3-dioxo-4,7-methano-2H-isoindol-2-yl)-N-8-quinolinyl-Benzamide] | no fine intracellular structure defects were identified | cluster separately from each other | preserved | reproduces macular and peripheral cell sizes in vitro, respectively | induces a peripheral RPE phenotype | not disruptive of iPSC-RPE health; also recorded: did not affect the healthy RPE phenotype | nor did they affect gross or fine cell morphology

Source: patent US20240261474A1, “BIODEGRADABLE TISSUE SCAFFOLD WITH SECONDARY MATRIX TO HOST WEAKLY ADHERENT CELLS” (THE U.S.A., as represented by the Secretary, Department of …, priority 2021, published 2024)
